Read-outs that look alike come from different tables or passages of the source.
What was measured:
[1] = test system: collagen-induced platelet aggregation; test: Platelet aggregation suppressing effect (collagen-induced aggregation in platelet rich plasma); format: cell-based; conditions: human PRP, 37° C., collagen as inducer, read-out: Inhibitory effect of collagen-induced platelet aggregation IC50
Protocol: Human blood was collected using 3.13% sodium citrate in a volume 1/10 of the blood volume, as an anticoagulant. The collected blood was centrifuged at 180 g for 10 minutes to separate platelet rich plasma (PRP) from the blood. After collecting the PRP fraction in the upper layer, the lower layer was further centrifuged at 1600 g for 10 minutes to fractionate platelet poor plasma (PPP) in the upper layer. One μl of a solution of a compound obtained in the Examples was added to 200 μl of PRP, and the mixture was allowed to stand at 37° C. for 2 minutes. Subsequently, 2 μl of collagen was added thereto, so as to induce platelet aggregation. The platelet aggregation rate was measured using PAM-12C(SSR Engineering, Inc.).

[2] = target: T1, Cyclooxygenase-1 (COX-1) (Ovis aries, UniProt P05979); test: COX-1 inhibition, COX Inhibitor Screening Assay Kit (PGF2α production, ELISA); format: biochemical; conditions: compound 50 μM
T1 construct: purchased Cayman Chemical Company 560101
T1 sequence (P05979 25-600): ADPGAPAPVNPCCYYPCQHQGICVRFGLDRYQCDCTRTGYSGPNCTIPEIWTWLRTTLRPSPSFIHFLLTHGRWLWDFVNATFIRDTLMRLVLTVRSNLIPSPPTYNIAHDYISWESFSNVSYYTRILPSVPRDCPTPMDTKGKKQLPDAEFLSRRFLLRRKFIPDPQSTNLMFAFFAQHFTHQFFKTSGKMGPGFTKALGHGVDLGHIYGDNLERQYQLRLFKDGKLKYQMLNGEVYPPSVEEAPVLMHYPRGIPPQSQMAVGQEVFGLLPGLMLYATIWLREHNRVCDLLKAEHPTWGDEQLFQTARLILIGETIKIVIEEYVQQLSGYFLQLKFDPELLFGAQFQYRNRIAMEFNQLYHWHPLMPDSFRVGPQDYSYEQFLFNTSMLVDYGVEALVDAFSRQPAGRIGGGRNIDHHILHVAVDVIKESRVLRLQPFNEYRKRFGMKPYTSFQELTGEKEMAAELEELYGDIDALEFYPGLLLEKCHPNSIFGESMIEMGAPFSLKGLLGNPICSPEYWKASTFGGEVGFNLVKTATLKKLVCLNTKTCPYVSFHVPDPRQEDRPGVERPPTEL
Excerpt: (§1) For the measurement of the inhibitory activity of the compounds obtained in the Examples against COX-1 and COX-2, a COX Inhibitor Screening Assay Kit manufactured by Cayman Chemical Company (Catalog Nos. 560101 and 560121) was used.
(§2) Before starting the measurement, a reaction buffer, heme, arachidonic acid, SnCl2, EIA buffer, a washing buffer, prostaglandin (PG)-screening EIA standard solution, PG-screening acetylcholinesterase (AchE), a tracer […], and PG-screening EIA antiserum were provided.
A reaction solution containing a compound of the Examples (50 μM) and COX-1, or a reaction solution containing a compound of the Examples (300 μM) and COX-2 was allowed to stand at 37° C. for 10 minutes, then 10 μl of arachidonic acid was added thereto, and the resultant mixture was allowed to stand at 37° C. for 2 minutes. After the reaction, 50 μl of 1 N hydrochloric acid was added to the reaction mixture to stop the reaction, and 100 μl of a SnCl2 solution was added thereto. The resultant mixture was allowed to stand at room temperature for 5 minutes.
50 μl of antiserum (rabbit anti-PGF2α antibody) was added to each well of a 96-well plate coated with mouse anti-rabbit IgG. Then, 50 μl of a solution prepared by diluting the reaction solution for PGF2α production to 2000-folds, and 50 μl of an AchE tracer were added sequentially to the wells, and the plate was kept at room temperature for 18 hours. Each well washed 5 times with the washing buffer to remove excessive AchE tracer, and then 200 μl of Ellman reagent was added to each well. The plate was kept in the dark room for 60 minutes, and then, absorbance at 405 nm was measured.
A standard curve was produced using a PG-screening EIA standard solution, and the amount of PGF2α production was determined from the absorbance obtained as described above. The COX-1 inhibition rate at 50 μM of the compound of the Examples, and the COX-2 inhibition rate at 300 μM of the compound of the Examples were calculated.

[3] = target: T2, Cyclooxygenase-2 (COX-2) (Homo sapiens, UniProt P35354); test: COX-2 inhibition, COX Inhibitor Screening Assay Kit (PGF2α production, ELISA); format: biochemical; conditions: compound 300 μM
T2 construct: purchased Cayman Chemical Company 560121
T2 sequence (P35354 18-604): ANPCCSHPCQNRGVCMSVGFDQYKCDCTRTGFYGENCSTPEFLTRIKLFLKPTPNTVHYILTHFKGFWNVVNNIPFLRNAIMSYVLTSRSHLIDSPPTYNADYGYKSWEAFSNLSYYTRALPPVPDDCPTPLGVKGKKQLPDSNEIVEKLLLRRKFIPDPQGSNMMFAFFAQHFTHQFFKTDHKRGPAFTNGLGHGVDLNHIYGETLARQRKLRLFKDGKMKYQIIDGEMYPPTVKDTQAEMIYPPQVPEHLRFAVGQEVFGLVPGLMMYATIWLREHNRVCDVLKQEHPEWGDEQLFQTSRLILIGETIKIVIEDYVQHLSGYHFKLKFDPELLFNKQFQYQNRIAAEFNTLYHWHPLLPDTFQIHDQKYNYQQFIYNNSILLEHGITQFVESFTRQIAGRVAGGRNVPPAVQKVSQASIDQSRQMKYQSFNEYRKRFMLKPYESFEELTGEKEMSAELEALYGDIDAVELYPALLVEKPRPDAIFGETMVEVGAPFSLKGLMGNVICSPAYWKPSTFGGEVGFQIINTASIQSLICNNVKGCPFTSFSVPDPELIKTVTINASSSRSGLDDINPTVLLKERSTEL
Excerpt: as §1, §2
A reaction solution containing a compound of the Examples (50 μM) and COX-1, or a reaction solution containing a compound of the Examples (300 μM) and COX-2 was allowed to stand at 37° C. for 10 minutes, then 10 μl of arachidonic acid was added thereto, and the resultant mixture was allowed to stand at 37° C. for 2 minutes. […]
50 μl of antiserum (rabbit anti-PGF2α antibody) was added to each well of a 96-well plate coated with mouse anti-rabbit IgG. […] The plate was kept in the dark room for 60 minutes, and then, absorbance at 405 nm was measured.
A standard curve was produced using a PG-screening EIA standard solution, and the amount of PGF2α production was determined from the absorbance obtained as described above. […]

[4] = test system: collagen-induced platelet aggregation; conditions: background art, cited from earlier work

| SMILES | IC50 [1] | COX-1 inhibitory action at 50 μM (% inhibition) [2] | COX-2 inhibitory action at 300 μM (% inhibition) [3] | IC50 ([4]; read-out: IC50 value against collagen-induced platelet aggregation) | platelet aggregation inhibitory action compared with inhibitory activity against COX-2 [4] |
| --- | --- | --- | --- | --- | --- |
| COc1ccc(-n2nc(C(=O)N3CCCC(OC)C3)cc2-c2ccccn2)cn1 (centres unmarked) [Example 34, 1-[1-(6-Methoxy-3-pyridyl)-5-(2-pyridyl)-1H-pyrazole-3-carbonyl]-3-methoxypiperidine] | 63 nM | −18.4 % inhibition |  |  |  |
| COc1ccc(-n2nc(C(=O)N3CCN(C)C(=O)C3)cc2-c2ccn(C)n2)cn1 [Example 36, 1-[1-(6-Methoxy-3-pyridyl)-5 (1-methyl-1H-pyrazol-3-yl)-1H-pyrazole-3-carbonyl]-4-methyl-3-oxopiperazine] | 370 nM | 1.2 % inhibition |  |  |  |
| COc1ccc(-n2nc(C(=O)N3CCOCC3)cc2-c2cc[nH]c2)nn1 [Example 41, 1-[1-(6-Methoxy-3-pyridazinyl)-5-(1H-pyrrol-3-yl)-1H-pyrazole-3-carbonyl]morpholine] | 170 nM | −21.3 % inhibition |  |  |  |
| COc1ccc(-n2nc(C(=O)N3CCC(OC)CC3)cc2-c2cn(C)cn2)cn1 [Example 73, 1-[1-(6-Methoxy-3-pyridyl)-5-(1-methyl-1H-imidazol-4-yl)-1H-pyrazole-3-carbonyl]-4-methoxypiperidine] | 150 nM | 5.9 % inhibition | 15.5 % inhibition |  |  |
| COc1ccc(-n2nc(C(=O)N3CCOC[C@@H]3C)cc2-c2ccccn2)nn1 [Example 105, (+)(3S)-4-[1-(6-Methoxypyridazin-3-yl)-5-(2-pyridyl)-1H-pyrazole-3-carbonyl]-3-methylmorpholine] | 440 nM | −9.6 % inhibition |  |  |  |
| COc1ccc(-n2nc(C(=O)N3CCOC[C@H]3C)cc2-c2ccccn2)nn1 [Example 107, (−)(3R)-4-[1-(6-Methoxypyridazin-3-yl)-5-(2-pyridyl)-1H-pyrazole-3-carbonyl]-3-methylmorpholine] | 430 nM | −3.9 % inhibition |  |  |  |
| COc1ccc(-n2nc(C(=O)N3CCOCC3)cc2-c2cnn(C)c2)cn1 [Example 115, 4-[1-(6-Methoxy-3-pyridyl)-5-(1-methyl-1H-pyrazol-4-yl)-1H-pyrazole-3-carbonyl]morpholine] | 110 nM | −21.2 % inhibition | 23.4 % inhibition |  |  |
| COc1ccc(-n2nc(C(=O)N3CCOCC3)cc2-c2cscn2)cn1 [Example 118, 4-[1-(6-Methoxy-3-pyridyl)-5-(thiazol-4-yl)-1H-pyrazole-3-carbonyl]morpholine] | 79 nM | −12.7 % inhibition |  |  |  |
| COc1ccc(-n2nc(C(=O)N3CCC(OC)CC3)cc2-c2cnn(C)c2)cn1 [Example 119, 1-[1-(6-Methoxy-3-pyridyl)-5-(1-methyl-1H-pyrazol-4-yl)-1H-pyrazole-3-carbonyl]-4-methoxypiperidine] | 160 nM | 13.0 % inhibition |  |  |  |
| COc1ccc(-n2nc(C(=O)N3CCN(C)C(=O)C3)cc2-c2cnn(C)c2)cn1 [Example 121, 1-[1-(6-Methoxy-3-pyridyl)-5-(1-methyl-1H-pyrazol-4-yl)-1H-pyrazole-3-carbonyl]-4-methyl-3-oxopiperazine] | 710 nM | −0.7 % inhibition |  |  |  |
| COc1ccc(-n2nc(C(=O)N3CCN(C)C(=O)C3)cc2-c2ccn(C)c2)nn1 [Example 124, 1-[1-(6-Methoxy-3-pyridazinyl)-5-(1-methyl-1H-pyrrol-3-yl)-1H-pyrazole-3-carbonyl]-4-methyl-3-oxopiperazine] | 440 nM | 8.3 % inhibition |  |  |  |
| COc1ccc(-n2nc(C(=O)N3CCN(C)C(=O)C3)cc2-c2cscn2)cn1 [Example 126, 1-[1-(6-Methoxy-3-pyridyl)-5-(thiazol-4-yl)-1H-pyrazole-3-carbonyl]-4-methyl-3-oxopiperazine] | 360 nM | −6.4 % inhibition |  |  |  |
| COc1ccc(-n2nc(C(=O)N3CCN(C)CC3)cc2-c2cscn2)cn1 [Example 127, 1-[1-(6-Methoxy-3-pyridyl)-5-(thiazol-4-yl)-1H-pyrazole-3-carbonyl]-4-methylpiperazine] | 230 nM | −21.2 % inhibition |  |  |  |
| COc1ccc(-n2nc(C(=O)N3CCC(F)(F)CC3)cc2-c2cnn(C)c2)nn1 [Example 141, 1-[1-(6-Methoxy-3-pyridazinyl)-5-(1-methyl-1H-pyrazol-4-yl)-1H-pyrazole-3-carbonyl]-4,4-difluoropiperidine] | 190 nM | 24.4 % inhibition |  |  |  |
| CS(=O)(=O)c1ccc(-c2cc(C#N)nn2-c2ccc(F)cc2)cc1 [compound (A)] |  |  |  | 5300 nM |  |
| COc1ccc(-c2cc(C(F)F)nn2-c2ccc(S(N)(=O)=O)cc2)cc1F [compound (B)] |  |  |  |  | not as strong as the inhibitory activity of the compound against COX-2 |
